Assay results taken from publication PMC12586182 (Frontiers in Oncology, 2025).

Columns and labels:
Assay in all cases: Kinase panel profiling at 1 µmol/L (mobility shift assay, Carna)
Format in all cases: biochemical
Conditions in all cases: 1 µmol/L of BTK inhibitor
NEK7 = target: T1, NEK7 (Homo sapiens, UniProt Q8TDX7)
T1 construct: purchased Carna Biosciences

CK2α1/β = target: T2, CK2α1/β (Homo sapiens, UniProt P68400)
T2 construct: purchased Carna Biosciences

p70S6K = target: T3, p70S6K (Homo sapiens, UniProt P23443)
T3 construct: purchased Carna Biosciences

CK1γ3 = target: T4, CK1γ3 (Homo sapiens, UniProt Q9Y6M4)
T4 construct: purchased Carna Biosciences

GSK3α = target: T5, GSK3α (Homo sapiens, UniProt P49840)
T5 construct: purchased Carna Biosciences

SGK2 = target: T6, SGK2 (Homo sapiens, UniProt Q9HBY8)
T6 construct: purchased Carna Biosciences
T6 sequence (Q9HBY8 1-367): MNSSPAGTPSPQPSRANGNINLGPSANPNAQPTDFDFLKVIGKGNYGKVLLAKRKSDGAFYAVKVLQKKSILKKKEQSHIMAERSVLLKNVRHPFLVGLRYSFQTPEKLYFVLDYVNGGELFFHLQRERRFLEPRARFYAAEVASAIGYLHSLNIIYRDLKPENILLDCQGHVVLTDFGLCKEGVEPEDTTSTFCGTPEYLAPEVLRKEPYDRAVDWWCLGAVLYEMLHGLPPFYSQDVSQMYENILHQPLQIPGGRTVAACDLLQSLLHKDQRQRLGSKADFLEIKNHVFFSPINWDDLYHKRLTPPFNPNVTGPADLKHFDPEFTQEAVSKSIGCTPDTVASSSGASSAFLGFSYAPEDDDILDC

EPHB3 = target: T7, EPHB3 (Homo sapiens, UniProt P54753)
T7 construct: purchased Carna Biosciences
T7 sequence (P54753 34-998): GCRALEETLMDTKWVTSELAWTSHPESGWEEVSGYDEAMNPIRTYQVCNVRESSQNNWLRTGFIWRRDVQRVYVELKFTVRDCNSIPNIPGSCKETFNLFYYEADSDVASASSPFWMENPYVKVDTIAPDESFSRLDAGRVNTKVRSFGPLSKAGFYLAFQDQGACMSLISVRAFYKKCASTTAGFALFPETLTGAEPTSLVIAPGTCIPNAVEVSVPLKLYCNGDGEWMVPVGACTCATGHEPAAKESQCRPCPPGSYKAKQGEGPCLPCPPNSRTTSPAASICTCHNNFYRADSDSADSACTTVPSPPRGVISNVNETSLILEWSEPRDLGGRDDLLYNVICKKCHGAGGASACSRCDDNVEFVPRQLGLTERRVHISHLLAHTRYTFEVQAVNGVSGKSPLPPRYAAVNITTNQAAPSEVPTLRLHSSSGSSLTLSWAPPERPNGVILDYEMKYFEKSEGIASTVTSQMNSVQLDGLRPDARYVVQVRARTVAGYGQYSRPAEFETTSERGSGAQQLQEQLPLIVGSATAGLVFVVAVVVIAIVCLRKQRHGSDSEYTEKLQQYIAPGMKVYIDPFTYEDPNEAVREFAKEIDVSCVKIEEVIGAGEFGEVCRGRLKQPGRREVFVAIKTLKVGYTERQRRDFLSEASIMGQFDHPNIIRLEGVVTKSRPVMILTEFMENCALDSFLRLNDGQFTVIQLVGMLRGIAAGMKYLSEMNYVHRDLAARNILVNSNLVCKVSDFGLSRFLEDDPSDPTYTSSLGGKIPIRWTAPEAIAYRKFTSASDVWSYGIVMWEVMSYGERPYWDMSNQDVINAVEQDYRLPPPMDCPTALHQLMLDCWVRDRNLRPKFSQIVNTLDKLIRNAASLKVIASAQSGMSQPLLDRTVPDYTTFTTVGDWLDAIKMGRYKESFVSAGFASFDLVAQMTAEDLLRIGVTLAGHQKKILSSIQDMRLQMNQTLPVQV

MARK1 = target: T8, MARK1 (Homo sapiens, UniProt Q9P0L2)
T8 construct: purchased Carna Biosciences
T8 sequence (Q9P0L2 whole entry): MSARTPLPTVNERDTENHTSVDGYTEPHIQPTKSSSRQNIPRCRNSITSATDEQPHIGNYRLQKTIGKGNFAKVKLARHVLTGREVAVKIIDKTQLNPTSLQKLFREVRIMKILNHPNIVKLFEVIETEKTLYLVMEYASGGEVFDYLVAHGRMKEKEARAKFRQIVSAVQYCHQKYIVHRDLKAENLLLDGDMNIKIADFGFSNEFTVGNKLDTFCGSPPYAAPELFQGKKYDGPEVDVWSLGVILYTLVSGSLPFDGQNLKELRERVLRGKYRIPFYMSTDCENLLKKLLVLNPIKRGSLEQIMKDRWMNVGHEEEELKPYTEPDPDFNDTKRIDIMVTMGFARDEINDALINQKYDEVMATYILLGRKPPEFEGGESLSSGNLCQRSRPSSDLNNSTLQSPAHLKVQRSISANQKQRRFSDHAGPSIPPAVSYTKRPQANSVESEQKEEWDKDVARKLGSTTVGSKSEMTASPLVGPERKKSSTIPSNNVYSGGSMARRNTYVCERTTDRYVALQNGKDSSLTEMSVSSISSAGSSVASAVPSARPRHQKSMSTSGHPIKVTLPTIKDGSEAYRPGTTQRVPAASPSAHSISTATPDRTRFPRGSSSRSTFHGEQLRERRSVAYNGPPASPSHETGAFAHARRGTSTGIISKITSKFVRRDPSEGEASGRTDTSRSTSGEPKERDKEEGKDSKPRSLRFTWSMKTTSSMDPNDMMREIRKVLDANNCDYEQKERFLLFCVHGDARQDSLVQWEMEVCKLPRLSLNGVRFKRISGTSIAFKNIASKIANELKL

SPHK1 = target: T9, SPHK1 (Homo sapiens, UniProt Q9NYA1)
T9 construct: purchased Carna Biosciences
T9 sequence (Q9NYA1 whole entry): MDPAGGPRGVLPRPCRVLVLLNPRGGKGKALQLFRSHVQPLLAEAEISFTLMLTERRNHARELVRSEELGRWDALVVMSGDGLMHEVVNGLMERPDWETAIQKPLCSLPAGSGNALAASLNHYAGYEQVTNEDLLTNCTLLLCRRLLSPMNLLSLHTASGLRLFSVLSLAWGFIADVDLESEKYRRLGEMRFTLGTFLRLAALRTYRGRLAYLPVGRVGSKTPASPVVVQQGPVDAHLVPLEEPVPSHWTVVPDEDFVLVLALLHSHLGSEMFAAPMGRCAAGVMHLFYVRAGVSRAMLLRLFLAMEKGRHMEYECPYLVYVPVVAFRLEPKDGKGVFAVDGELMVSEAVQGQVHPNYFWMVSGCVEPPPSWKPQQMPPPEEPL

PKCη = target: T10, PKCη (Homo sapiens, UniProt P24723)
T10 construct: purchased Carna Biosciences
T10 sequence (P24723 whole entry): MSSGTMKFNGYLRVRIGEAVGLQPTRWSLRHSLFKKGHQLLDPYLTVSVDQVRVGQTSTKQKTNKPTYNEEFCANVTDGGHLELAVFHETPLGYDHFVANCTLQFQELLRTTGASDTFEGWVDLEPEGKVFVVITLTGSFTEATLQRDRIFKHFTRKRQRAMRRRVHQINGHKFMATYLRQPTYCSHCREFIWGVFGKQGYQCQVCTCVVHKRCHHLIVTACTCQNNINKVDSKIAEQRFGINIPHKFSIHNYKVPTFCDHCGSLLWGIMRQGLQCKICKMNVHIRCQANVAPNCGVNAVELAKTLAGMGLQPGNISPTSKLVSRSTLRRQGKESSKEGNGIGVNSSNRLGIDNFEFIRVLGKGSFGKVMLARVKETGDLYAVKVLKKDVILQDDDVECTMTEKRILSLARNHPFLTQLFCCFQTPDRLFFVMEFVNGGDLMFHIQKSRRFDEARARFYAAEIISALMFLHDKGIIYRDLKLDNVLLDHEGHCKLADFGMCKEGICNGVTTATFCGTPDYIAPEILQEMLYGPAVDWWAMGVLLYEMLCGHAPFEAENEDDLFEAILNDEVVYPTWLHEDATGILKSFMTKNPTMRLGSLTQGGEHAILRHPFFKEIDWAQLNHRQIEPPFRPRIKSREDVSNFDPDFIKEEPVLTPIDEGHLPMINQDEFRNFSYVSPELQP

JNK2 = target: T11, JNK2 (Homo sapiens, UniProt P45984)
T11 construct: purchased Carna Biosciences
T11 sequence (P45984 whole entry): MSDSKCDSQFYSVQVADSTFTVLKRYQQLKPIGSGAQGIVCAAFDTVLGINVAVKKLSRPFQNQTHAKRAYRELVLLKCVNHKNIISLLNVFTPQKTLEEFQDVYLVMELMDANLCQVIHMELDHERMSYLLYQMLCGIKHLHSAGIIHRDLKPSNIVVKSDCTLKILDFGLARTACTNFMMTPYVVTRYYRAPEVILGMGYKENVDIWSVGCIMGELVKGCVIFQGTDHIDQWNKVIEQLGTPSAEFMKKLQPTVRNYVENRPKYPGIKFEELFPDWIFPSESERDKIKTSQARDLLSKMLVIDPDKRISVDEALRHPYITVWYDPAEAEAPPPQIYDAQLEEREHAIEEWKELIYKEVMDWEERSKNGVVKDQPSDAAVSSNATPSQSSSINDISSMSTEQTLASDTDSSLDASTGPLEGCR

DAPK1 = target: T12, DAPK1 (Homo sapiens, UniProt P53355)
T12 construct: purchased Carna Biosciences
T12 sequence (P53355 whole entry): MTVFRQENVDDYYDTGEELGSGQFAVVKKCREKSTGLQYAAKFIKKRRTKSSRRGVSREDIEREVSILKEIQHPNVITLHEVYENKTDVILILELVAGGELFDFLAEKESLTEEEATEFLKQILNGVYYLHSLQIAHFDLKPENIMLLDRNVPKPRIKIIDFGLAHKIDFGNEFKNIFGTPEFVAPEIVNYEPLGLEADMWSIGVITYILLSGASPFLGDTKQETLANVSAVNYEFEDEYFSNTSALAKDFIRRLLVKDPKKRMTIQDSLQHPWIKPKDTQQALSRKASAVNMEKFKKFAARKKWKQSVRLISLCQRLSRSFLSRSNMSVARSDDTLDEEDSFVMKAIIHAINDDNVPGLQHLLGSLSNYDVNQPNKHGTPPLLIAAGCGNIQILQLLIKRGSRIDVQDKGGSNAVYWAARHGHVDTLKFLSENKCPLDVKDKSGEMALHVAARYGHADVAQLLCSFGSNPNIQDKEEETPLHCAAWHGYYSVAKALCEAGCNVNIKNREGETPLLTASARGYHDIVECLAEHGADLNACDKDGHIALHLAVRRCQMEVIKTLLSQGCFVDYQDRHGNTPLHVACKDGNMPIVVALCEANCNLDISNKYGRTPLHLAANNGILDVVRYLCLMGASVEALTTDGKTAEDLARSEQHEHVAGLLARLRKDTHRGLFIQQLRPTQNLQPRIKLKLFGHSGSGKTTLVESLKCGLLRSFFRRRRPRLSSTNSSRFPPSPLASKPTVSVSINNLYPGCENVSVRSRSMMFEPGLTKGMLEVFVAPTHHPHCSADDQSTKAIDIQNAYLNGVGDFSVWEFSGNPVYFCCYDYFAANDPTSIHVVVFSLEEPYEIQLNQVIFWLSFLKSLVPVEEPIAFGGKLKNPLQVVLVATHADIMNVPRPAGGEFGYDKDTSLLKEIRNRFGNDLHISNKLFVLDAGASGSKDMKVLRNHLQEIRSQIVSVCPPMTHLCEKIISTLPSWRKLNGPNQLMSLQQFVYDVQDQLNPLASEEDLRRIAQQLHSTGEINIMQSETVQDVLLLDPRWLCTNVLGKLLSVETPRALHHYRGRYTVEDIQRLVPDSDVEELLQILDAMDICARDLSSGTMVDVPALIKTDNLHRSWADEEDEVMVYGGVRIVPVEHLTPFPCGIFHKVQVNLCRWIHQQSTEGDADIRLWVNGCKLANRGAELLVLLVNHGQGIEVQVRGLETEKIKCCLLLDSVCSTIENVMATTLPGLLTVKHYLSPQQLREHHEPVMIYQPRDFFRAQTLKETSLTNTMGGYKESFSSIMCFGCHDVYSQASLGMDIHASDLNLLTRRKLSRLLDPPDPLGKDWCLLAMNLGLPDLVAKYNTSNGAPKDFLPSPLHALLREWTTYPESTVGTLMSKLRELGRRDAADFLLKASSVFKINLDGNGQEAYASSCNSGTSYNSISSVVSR

EPHB1 = target: T13, EPHB1 (Homo sapiens, UniProt P54762)
T13 construct: purchased Carna Biosciences
T13 sequence (P54762 18-984): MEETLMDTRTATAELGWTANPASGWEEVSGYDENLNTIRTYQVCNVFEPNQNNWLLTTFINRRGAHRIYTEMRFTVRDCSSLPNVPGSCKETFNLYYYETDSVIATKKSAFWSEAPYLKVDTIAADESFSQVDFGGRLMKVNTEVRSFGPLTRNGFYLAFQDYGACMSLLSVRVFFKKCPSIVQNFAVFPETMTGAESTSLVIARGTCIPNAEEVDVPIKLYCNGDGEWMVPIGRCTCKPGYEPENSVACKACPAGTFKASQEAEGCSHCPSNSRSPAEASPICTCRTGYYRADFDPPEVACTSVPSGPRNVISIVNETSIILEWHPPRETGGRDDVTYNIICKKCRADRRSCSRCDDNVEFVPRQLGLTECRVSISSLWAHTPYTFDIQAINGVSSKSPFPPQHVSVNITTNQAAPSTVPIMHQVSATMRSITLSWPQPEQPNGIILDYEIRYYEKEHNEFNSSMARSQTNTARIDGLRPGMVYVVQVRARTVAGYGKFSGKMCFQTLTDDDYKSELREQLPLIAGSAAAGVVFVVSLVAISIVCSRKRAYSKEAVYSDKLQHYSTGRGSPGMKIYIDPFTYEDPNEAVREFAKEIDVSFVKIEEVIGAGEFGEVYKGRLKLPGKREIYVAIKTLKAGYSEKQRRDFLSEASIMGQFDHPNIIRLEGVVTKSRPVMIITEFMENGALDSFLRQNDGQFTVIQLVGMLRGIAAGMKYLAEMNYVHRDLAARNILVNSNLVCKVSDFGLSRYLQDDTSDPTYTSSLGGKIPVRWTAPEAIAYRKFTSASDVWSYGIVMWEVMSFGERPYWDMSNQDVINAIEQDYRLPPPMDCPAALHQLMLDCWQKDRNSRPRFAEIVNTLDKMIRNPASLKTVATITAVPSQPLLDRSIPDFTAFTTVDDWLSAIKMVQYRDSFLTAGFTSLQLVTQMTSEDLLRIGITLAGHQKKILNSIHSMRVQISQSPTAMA

T1 sequence (Q8TDX7 whole entry): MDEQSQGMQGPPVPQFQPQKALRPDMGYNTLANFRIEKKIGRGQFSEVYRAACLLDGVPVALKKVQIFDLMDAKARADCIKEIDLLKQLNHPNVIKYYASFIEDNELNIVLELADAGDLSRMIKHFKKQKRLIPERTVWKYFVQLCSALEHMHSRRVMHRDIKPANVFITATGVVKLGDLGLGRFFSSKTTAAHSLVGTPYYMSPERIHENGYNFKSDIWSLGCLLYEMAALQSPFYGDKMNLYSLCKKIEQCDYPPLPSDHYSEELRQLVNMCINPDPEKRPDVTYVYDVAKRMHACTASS
T2 sequence (P68400 whole entry): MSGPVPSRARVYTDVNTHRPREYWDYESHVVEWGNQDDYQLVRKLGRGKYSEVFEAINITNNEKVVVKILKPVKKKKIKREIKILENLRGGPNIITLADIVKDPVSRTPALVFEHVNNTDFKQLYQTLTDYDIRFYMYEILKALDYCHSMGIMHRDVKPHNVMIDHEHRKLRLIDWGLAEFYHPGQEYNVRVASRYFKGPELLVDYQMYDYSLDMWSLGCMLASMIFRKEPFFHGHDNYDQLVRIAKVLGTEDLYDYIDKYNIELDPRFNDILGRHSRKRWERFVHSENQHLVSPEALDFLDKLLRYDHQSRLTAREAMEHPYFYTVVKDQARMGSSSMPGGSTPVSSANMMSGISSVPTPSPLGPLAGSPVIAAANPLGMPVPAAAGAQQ
T2 sequence (P67870 whole entry partner): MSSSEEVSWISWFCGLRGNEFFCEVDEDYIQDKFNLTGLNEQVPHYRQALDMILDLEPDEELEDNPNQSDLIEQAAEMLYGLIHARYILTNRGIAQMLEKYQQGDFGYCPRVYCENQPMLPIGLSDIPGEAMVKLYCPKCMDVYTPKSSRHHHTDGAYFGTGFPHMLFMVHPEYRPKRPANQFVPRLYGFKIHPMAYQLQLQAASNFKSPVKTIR

CC#CC(=O)N1CCC[C@H]1c1nc(-c2ccc(C(=O)Nc3ccccn3)cc2)c2c(N)nccn12 [acalabrutinib]
Percentage inhibition of kinase enzyme activity (NEK7): -10.68% | Percentage inhibition of kinase enzyme activity (CK2α1/β): 5.34% | Percentage inhibition of kinase enzyme activity (p70S6K): -13.73% | Percentage inhibition of kinase enzyme activity (CK1γ3): -14.72% | Percentage inhibition of kinase enzyme activity (GSK3α): 2.47% | Percentage inhibition of kinase enzyme activity (SGK2): -19.42% | Percentage inhibition of kinase enzyme activity (EPHB3): 1.64% | Percentage inhibition of kinase enzyme activity (MARK1): -3.49% | Percentage inhibition of kinase enzyme activity (SPHK1): -3.15% | Percentage inhibition of kinase enzyme activity (PKCη): -3.18% | Percentage inhibition of kinase enzyme activity (JNK2): -1.85% | Percentage inhibition of kinase enzyme activity (DAPK1): -17.45% | Percentage inhibition of kinase enzyme activity (EPHB1): -1.40%

C=CC(=O)N1CCC[C@@H](n2nc(-c3ccc(Oc4ccccc4)cc3)c3c(N)ncnc32)C1 [ibrutinib]
Percentage inhibition of kinase enzyme activity (NEK7): 0.69% | Percentage inhibition of kinase enzyme activity (CK2α1/β): -11.11% | Percentage inhibition of kinase enzyme activity (p70S6K): 19.28% | Percentage inhibition of kinase enzyme activity (CK1γ3): 3.83% | Percentage inhibition of kinase enzyme activity (GSK3α): 2.24% | Percentage inhibition of kinase enzyme activity (EPHB3): 2.93% | Percentage inhibition of kinase enzyme activity (MARK1): 2.46% | Percentage inhibition of kinase enzyme activity (SPHK1): -3.38% | Percentage inhibition of kinase enzyme activity (PKCη): 3.27% | Percentage inhibition of kinase enzyme activity (JNK2): -2.83% | Percentage inhibition of kinase enzyme activity (DAPK1): -3.80% | Percentage inhibition of kinase enzyme activity (EPHB1): 11.81%

O=C(c1ccc(Oc2ccccc2)cc1Cl)c1c[nH]c2ncnc(N[C@@H]3CC[C@@H](CO)OC3)c12 [nemtabrutinib]
Percentage inhibition of kinase enzyme activity (NEK7): 3.06% | Percentage inhibition of kinase enzyme activity (CK2α1/β): -2.75% | Percentage inhibition of kinase enzyme activity (p70S6K): 4.51% | Percentage inhibition of kinase enzyme activity (CK1γ3): 3.75% | Percentage inhibition of kinase enzyme activity (GSK3α): -3.85% | Percentage inhibition of kinase enzyme activity (SGK2): 2.52% | Percentage inhibition of kinase enzyme activity (EPHB3): 73.92% | Percentage inhibition of kinase enzyme activity (MARK1): 2.15% | Percentage inhibition of kinase enzyme activity (SPHK1): -5.57% | Percentage inhibition of kinase enzyme activity (PKCη): 5.25% | Percentage inhibition of kinase enzyme activity (JNK2): 4.23% | Percentage inhibition of kinase enzyme activity (DAPK1): -7.44% | Percentage inhibition of kinase enzyme activity (EPHB1): 63.64%

COc1ccc(F)cc1C(=O)NCc1ccc(-c2nn([C@@H](C)C(F)(F)F)c(N)c2C(N)=O)cc1 [pirtobrutinib]
Percentage inhibition of kinase enzyme activity (NEK7): -2.19% | Percentage inhibition of kinase enzyme activity (CK2α1/β): -1.74% | Percentage inhibition of kinase enzyme activity (p70S6K): -0.48% | Percentage inhibition of kinase enzyme activity (CK1γ3): -0.93% | Percentage inhibition of kinase enzyme activity (GSK3α): -5.30% | Percentage inhibition of kinase enzyme activity (SGK2): -0.16% | Percentage inhibition of kinase enzyme activity (EPHB3): 34.88% | Percentage inhibition of kinase enzyme activity (MARK1): -8.44% | Percentage inhibition of kinase enzyme activity (SPHK1): -10.15% | Percentage inhibition of kinase enzyme activity (PKCη): 3.32% | Percentage inhibition of kinase enzyme activity (JNK2): 7.41% | Percentage inhibition of kinase enzyme activity (DAPK1): -0.51% | Percentage inhibition of kinase enzyme activity (EPHB1): 2.51%

C=CC(=O)N1CCC([C@@H]2CCNc3c(C(N)=O)c(-c4ccc(Oc5ccccc5)cc4)nn32)CC1 [zanubrutinib]
Percentage inhibition of kinase enzyme activity (EPHB3): -2.82% | Percentage inhibition of kinase enzyme activity (EPHB1): -1.07%
